Data from patent publication EP4778929A1, “NOVEL TYPE I TOPOISOMERASE INHIBITOR, AND PREPARATION METHOD THEREFOR AND USE THEREOF” (priority 2023, dated 2025).
Like-named read-outs stand apart in the source and are kept apart here.

Legend:
topoisomerase I (Topo I) = biological target: T1, topoisomerase I (Topo I) (Homo sapiens, UniProt P11387); assay: Topo I enzyme-inhibitory activity by agarose-gel electrophoresis (plasmid relaxation); format: biochemical
T1 sequence (P11387 1-765): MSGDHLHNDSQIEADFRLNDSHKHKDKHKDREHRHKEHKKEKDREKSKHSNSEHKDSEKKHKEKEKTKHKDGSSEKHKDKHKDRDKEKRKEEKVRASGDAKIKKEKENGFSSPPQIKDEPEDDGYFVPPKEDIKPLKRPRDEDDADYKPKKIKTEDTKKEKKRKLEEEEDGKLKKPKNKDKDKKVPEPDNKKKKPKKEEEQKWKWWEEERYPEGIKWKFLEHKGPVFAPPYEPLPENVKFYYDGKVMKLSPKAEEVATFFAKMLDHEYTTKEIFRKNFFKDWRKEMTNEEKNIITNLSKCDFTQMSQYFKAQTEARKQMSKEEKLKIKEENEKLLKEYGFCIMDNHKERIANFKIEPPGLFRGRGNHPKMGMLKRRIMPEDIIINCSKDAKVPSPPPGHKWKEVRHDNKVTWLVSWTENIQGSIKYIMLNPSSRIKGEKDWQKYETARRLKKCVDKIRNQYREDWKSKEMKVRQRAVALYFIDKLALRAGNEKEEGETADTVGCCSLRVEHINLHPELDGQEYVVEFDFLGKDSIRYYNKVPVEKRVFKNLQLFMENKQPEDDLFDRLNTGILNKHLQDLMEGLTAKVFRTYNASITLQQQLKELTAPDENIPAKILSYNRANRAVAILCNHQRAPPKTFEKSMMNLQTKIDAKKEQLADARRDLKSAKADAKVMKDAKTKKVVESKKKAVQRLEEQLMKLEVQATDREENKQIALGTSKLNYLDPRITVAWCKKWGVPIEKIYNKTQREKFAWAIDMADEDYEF
From the text: Test Example 1. Determination of Topo I Enzyme-Inhibitory Activity by Agarose-Gel Electrophoresis
Principle: Type-I topoisomerase (Topo I) relaxes positive and negative supercoils by introducing transient single-strand breaks and forming reversible cleavage complexes (Topo I-DNA covalent complexes). Gel electrophoresis can resolve DNA species of identical molecular weight but different topology: supercoiled plasmid migrates fastest, whereas the nicked, relaxed form moves more slowly. Quantifying the decrease in supercoiled DNA therefore provides a direct measure of Topo I activity.
Experimental Procedure: A 1× reaction buffer was prepared (20 mM Tris-HCl pH 7.5, 200 mM NaCl, 0.25 mM EDTA, 5 % (v/v) glycerol, 0.5 µg pNO1 plasmid substrate). Test compounds (5 % DMSO final) were added to the buffer, followed by Topo I enzyme (0.75 U per reaction). After gentle mixing, reactions were incubated at 37 °C for 30 min. Positive (enzyme + vehicle) and negative (no enzyme) controls were included in parallel. Reactions were terminated by adding STEB buffer and chloroform/iso-amyl alcohol (24:1, v/v), vortexed and centrifuged for 2 min. The aqueous (upper) phase was loaded onto a 1 % (w/v) agarose gel, electrophoresed for 1-2 h, stained with GelRed, and imaged under UV trans-illumination.
Data Analysis: Band intensities of supercoiled DNA were quantified with image-analysis software. Relaxation activity (%) was calculated as (Max-Sample)/ (Max-Min)*100%, where Max = intensity of the no-enzyme negative control, Min = intensity of the vehicle-only positive control, and Sample = intensity of the compound-treated lane. Dose-response data (compound concentration, X; relaxation activity %, Y) were fitted in Excel or GraphPad Prism 5.0 using the four-parameter logistic equation: Y=Bottom + (Top-Bottom)/(1+(IC50/X)[…]) to derive the IC50 value for each compound.
Table 1. Compound-mediated inhibition of topoisomerase I (Topo I) enzymatic activity

[1] = Pharmacokinetic study in mice, plasma concentrations by LC-MS/MS
Protocol: Test Example 3. Pharmacokinetic Study for Determining Compound Concentrations in Mice by LC-MS/MS
Principle: LC-MS/MS is used to quantify the plasma concentrations of the test article at successive time points, generating an in-vivo pharmacokinetic profile.
Procedure: The test compound was dissolved in DMSO to prepare a 10 mg/mL stock solution. This stock was further diluted to 1 mg/mL with a vehicle consisting of 10 % DMSO + 10 % Solutol HS-15 + 80 % saline. Male CD-1 mice (JH Laboratory Animal Co., LTD) were employed; six animals were assigned per compound group. […] Serial blood samples (~50 µL whole blood, K2EDTA anticoagulant) were collected at 0.083, 0.25, 0.5, 1, 2, 4, 8 and 24 h (three mice per time point in a crossover design). Blood was centrifuged at 6 000 g for 5 min at 4 °C; plasma was harvested and stored at -70 °C until analysis. Plasma drug concentrations were determined by LC-MS/MS.
Calibration Curve and QC Preparation: Working solutions were prepared by dilution with MeOH:H2O (1:1). For each calibration or QC level, 3 µL of working solution was spiked into 57 µL of blank mouse plasma.
Sample Processing: To 30 µL of plasma was added 200 µL of methanol containing the internal standard (propranolol, 40 ng mL^-1). After vortex-mixing for 1 min, the mixture was centrifuged at 12 000 rpm for 10 min. A 100 µL aliquot of the supernatant was transferred to a clean plate for injection.
Pharmacokinetic Analysis: Concentration-time data were analyzed with WinNonlin 8.2 using a non-compartmental approach to derive PK parameters including Cmax, Tmax, AUC and terminal elimination half-life (t1/2). AUC was calculated by the linear-up/log-down trapezoidal method. Table 3. Pk parameters of compounds

HCT116 cells = assay: Inhibition of cell proliferation by CTG (CellTiter-Glo) luminescence assay; format: cell-based; details: Homo sapiens, HCT-116; 72 h incubation, CellTiter-Glo; read-out: HCT116, IC50
From the text: Test Example 2. Determination of Compound-Mediated Inhibition of Cell Proliferation by CTG (CellTiter-Glo) Luminescence Assay
Principle: The Promega CellTiter-Glo™ luciferase reagent was used. Luciferase consumes ATP to generate light; metabolically active cells continuously produce ATP through respiration and other processes. After adding an equal volume of CellTiter-Glo™ reagent to the culture medium, the resulting luminescence is directly proportional to the ATP content, which in turn correlates with the number of viable cells. Thus, the assay quantifies compound-induced suppression of cell proliferation.
Experimental Procedure: HCT116 cells (ATCC) were revived in complete medium (McCoy's 5a + 10 % FBS). After two passages, exponentially growing cells were harvested, counted, and resuspended to the appropriate density. A 100 µL aliquot of cell suspension (2 000 cells per well) was seeded into 96-well plates and incubated overnight (37 °C, 5 % CO2, 100 % relative humidity). Test compounds were dissolved in DMSO to prepare 10 mM stock solutions and serially diluted 1:3 in DMSO to generate nine concentration steps. Each DMSO solution was further diluted 200-fold into medium; 25 µL of the resulting solutions were added to the cell plates (final DMSO concentration […]). After 72 h incubation (37 °C, 5 % CO2), 50 µL of CellTiter-Glo reagent was added per well. Plates were shaken gently, incubated for 30 min at room temperature in the dark, and luminescence was read on an EnVision multimode reader. Percent inhibition was calculated as: Inhibition % = (1−As/Ac) × 100, [formula] where As = signal from compound-treated wells and Ac = signal from DMSO-only control wells. Concentration-response data were fitted in Excel with the XLfit add-in using the four-parameter logistic equation: Y = Bottom + (Top−Bottom)/[1+((IC50/X))^(∧)HillSlope], [formula] to derive the IC50 value for each compound. Table 2. IC50 of compounds

[2] = 0.75 U Topo I, pNO1 plasmid, 37 °C, 30 min; compounds listed by group (Group A / Group B); read-out: inhibition of topoisomerase I (Topo I) enzymatic activity, IC50
[3] = read-out: inhibition of topoisomerase I (Topo I) enzymatic activity, IC50; 0.75 U Topo I, pNO1 plasmid, 37 °C, 30 min; compounds listed by group (Group A / Group B)
[4] = male, CD-1, mouse, po, 20 mg/kg
[5] = male, CD-1, mouse, po, 10 mg/kg

CC[C@@]1(O)C(=O)OCc2c1cc1n(c2=O)Cc2c-1c(=O)c1cc(F)c([C@H](C)O)cc1n2C1CCCC1 (single isomer, unassigned) [Example 293]
IC50 (topoisomerase I (Topo I); [2]): 200 to 500 nM

CC[C@@]1(O)C(=O)OCc2c1cc1n(c2=O)Cc2c-1c(=O)c1cc(F)c([C@@H](C)O)cc1n2C1CCCC1 (single isomer, unassigned) [Example 294]
IC50 (topoisomerase I (Topo I); [2]): 200 to 500 nM

CC[C@@]1(O)C(=O)OCc2c1cc1n(c2=O)Cc2c-1nc1cc(F)c(C)c3c1c2[C@@H](NC(=O)CO)CC3 [DXd]
AUC(0-t) at 24 h ([1]; mouse, in vivo, iv, 1 mg/kg): 154 ng·h/mL
Cmax ([1]; mouse, in vivo, iv, 1 mg/kg): 455 ng/mL
clearance ([1]; mouse, in vivo, iv, 1 mg/kg): 108 mL/min/kg
half-life ([1]; mouse, in vivo, iv, 1 mg/kg): 9.3 min
AUC(0-t) at 24 h ([1]; mouse, in vivo, po, 10 mg/kg): 4.32 ng·h/mL
Cmax ([1]; mouse, in vivo, po, 10 mg/kg): 6.99 ng/mL
Tmax ([1]; mouse, in vivo, po, 10 mg/kg): 19.8 min
half-life ([1]; mouse, in vivo, po, 10 mg/kg): 23.4 min

CC[C@@]1(O)C(=O)OCc2c1cc1n(c2=O)Cc2c-1c(=O)c1cc(F)ccc1n2CCNC1CC1 [Example 96, (S)-11-(2-(cyclopropylamino)ethyl)-4-ethyl-8-fluoro-4-hydroxy-1,12-dihydro-14H-pyrano[3,4:6,7]indolizino[2,1-b]quinoline-3,6,14 (4H,11H)-trione]
IC50 (topoisomerase I (Topo I); [3]): < 200 nM

CC[C@@]1(O)C(=O)OCc2c1cc1n(c2=O)Cc2c-1c(=O)c1cc(F)ccc1n2CCN(C)C1CC1 [Example 97, (S)-11-(2-(cyclopropyl(methyl)amino)ethyl)-4-ethyl-8-fluoro-4-hydroxy-1,12-dihydro-14H-pyrano[3,4:6,7]indolizino[2,1-b]quinoline-3,6,14(4H,11H)-trione]
bioavailability ([1]; mouse, in vivo): 34.5%
AUC(0-t) at 24 h ([1]; mouse, in vivo, iv, 1 mg/kg): 114 ng·h/mL
Cmax ([1]; mouse, in vivo, iv, 1 mg/kg): 256 ng/mL
clearance ([1]; mouse, in vivo, iv, 1 mg/kg): 146 mL/min/kg
half-life ([1]; mouse, in vivo, iv, 1 mg/kg): 28.9 min
AUC(0-t) at 24 h ([1]; mouse, in vivo, po, 10 mg/kg): 395 ng·h/mL
Cmax ([1]; mouse, in vivo, po, 10 mg/kg): 131 ng/mL
Tmax ([1]; mouse, in vivo, po, 10 mg/kg): 55.2 min
half-life ([1]; mouse, in vivo, po, 10 mg/kg): 75.6 min

CC[C@@]1(O)C(=O)OCc2c1cc1n(c2=O)Cc2c-1c(=O)c1cc3c(cc1n2CCN(C)C1CCCC1)OCO3 [Example 179]
IC50 (topoisomerase I (Topo I); [3]): 200 to 500 nM

CC[C@@]1(O)C(=O)OCc2c1cc1n(c2=O)Cc2c-1c(=O)c1cc(F)ccc1n2[C@@H]1CCN(CCO)C1 [Example 252, (S)-4-ethyl-8-fluoro-4-hydroxy-11-((R)-1-(2-hydroxyethyl)pyrrolidin-3-yl)-1,12-dihydro-14H-pyrano[3',4':6,7]indolizino[2,1-b]quinoline-3,6,14(4H,11H)-trione]
bioavailability ([1]; male, CD-1, mouse): 43.1%
AUC(0-t) ([1]; male, CD-1, mouse, iv, 2 mg/kg): 674 ng·h/mL
Cmax ([1]; male, CD-1, mouse, iv, 2 mg/kg): 558 ng/mL
clearance ([1]; male, CD-1, mouse, iv, 2 mg/kg): 49.2 mL/min/kg
half-life ([1]; male, CD-1, mouse, iv, 2 mg/kg): 70.2 min
AUC(0-t) [1, 4]: 2820 ng·h/mL
Cmax [1, 4]: 680 ng/mL
Tmax [1, 4]: 79.8 min
half-life [1, 4]: 345 min

CC[C@@]1(O)C(=O)OCc2c1cc1n(c2=O)Cc2c-1c(=O)c1cc(F)ccc1n2[C@@H]1CCN(C2CCCC2)C1 [Example 257, (S)-4-ethyl-8-fluoro-4-hydroxy-11-((R)-1-cyclopentylpyrrolidin-3-yl)-1,12-dihydro-14H-pyrano[3',4':6,7]indolizino[2,1-b] quinoline-3,6,14(4H,11H)-trione]
bioavailability ([1]; male, CD-1, mouse): 40.2%
AUC(0-t) ([1]; male, CD-1, mouse, iv, 1 mg/kg): 352 ng·h/mL
Cmax ([1]; male, CD-1, mouse, iv, 1 mg/kg): 635 ng/mL
clearance ([1]; male, CD-1, mouse, iv, 1 mg/kg): 47.4 mL/min/kg
half-life ([1]; male, CD-1, mouse, iv, 1 mg/kg): 74.4 min
AUC(0-t) [1, 5]: 1370 ng·h/mL
Cmax [1, 5]: 528 ng/mL
Tmax [1, 5]: 49.8 min
half-life [1, 5]: 477 min
IC50 (HCT116 cells): < 20 nM

CC[C@@]1(O)C(=O)OCc2c1cc1n(c2=O)Cc2c-1c(=O)c1cc(F)ccc1n2[C@@H]1CCN(CC2CC2)C1 [Example 259, (S)-11-((R)-1-(cyclopropylmethyl)pyrrolidin-3-yl)-4-ethyl-8-fluoro-4-hydroxy-1H-pyrano[3',4':6,7]indolizino[2,1-b]quinoline-3,6,14(4H,11H,12H)-trione]
bioavailability ([1]; male, CD-1, mouse): 46.6%
AUC(0-t) ([1]; male, CD-1, mouse, iv, 1 mg/kg): 524 ng·h/mL
Cmax ([1]; male, CD-1, mouse, iv, 1 mg/kg): 497 ng/mL
clearance ([1]; male, CD-1, mouse, iv, 1 mg/kg): 31.8 mL/min/kg
half-life ([1]; male, CD-1, mouse, iv, 1 mg/kg): 57.6 min
AUC(0-t) [1, 5]: 2400 ng·h/mL
Cmax [1, 5]: 1230 ng/mL
Tmax [1, 5]: 49.8 min
half-life [1, 5]: 374 min
IC50 (HCT116 cells): < 20 nM

CCc1c2c(nc3ccc(O)cc13)-c1cc3c(c(=O)n1C2)COC(=O)[C@]3(O)CC [SN38]
AUC(0-t) at 24 h ([1]; mouse, iv, 1 mg/kg): 103 ng·h/mL
Cmax ([1]; mouse, iv, 1 mg/kg): 278 ng/mL
clearance ([1]; mouse, iv, 1 mg/kg): 163 mL/min/kg
half-life ([1]; mouse, iv, 1 mg/kg): 34 min
AUC(0-t) at 24 h ([1]; mouse, po, 10 mg/kg): 0.23 ng·h/mL
Cmax ([1]; mouse, po, 10 mg/kg): 1.87 ng/mL
